Experimental data reported in the METLIN SMRT retention time set (Domingo-Almenara et al. 2019).

Assay: gradient 5% acetonitrile 3 min, to 50% in 2 min, to 85% in 15 min, held 3 min, 100 µL/min
Settings: column: Zorbax Extend-C18 2.1 x 50 mm; eluents: water / acetonitrile, 0.1% formic acid
Method in brief: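 Each retention time is based on an adduct peak selected computationally and verified by manual inspection. Measurements used HPLC–quadrupole time-of-flight mass spectrometry in positive and negative ionization mode on mixtures of ~100 pure standards. Chromatography ran on a Zorbax Extend-C18 column (2.1 × 50 mm, 1.8 μm) at 100 μL/min with water and acetonitrile, each containing 0.1% formic acid, and dead and dwell volumes of 40 μL and 900 μL.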

| SMILES | RP-LC retention time |
| --- | --- |
| Cc1ccc(S(=O)(=O)N2C(=O)CCC2C(=O)NCc2ccc(Cl)cc2)cc1C (centres undefined) | 966 s |
| OCC1CN(c2ncccn2)CC12CCN(Cc1ccc3[nH]ccc3c1)CC2 (centres undefined) | 577 s |
| COc1ccc(-c2noc(-c3nnn4c3COC(c3ccc(F)cc3)C4)n2)c(OC)c1 (centres undefined) | 836 s |
| O=C(COc1ccc(F)cc1)N1CC(Oc2cccc(-c3nc(-c4ccccc4)no3)c2)C1 | 1190 s |
| CCCn1c(=O)c2c(nc3n2CCN3c2ccc(OC)cc2)n(C)c1=O | 834 s |
| Cc1cc(C)cc(OCCNS(=O)(=O)c2ccc3c(c2)OCCO3)c1 | 934 s |
| O=c1c(NCCN2CCCC2)nc2ccncc2n1Cc1ccccc1 | 876 s |
| C=CCNC(=O)C1CCCN(C(=O)Nc2ccc(NC(=O)Nc3ccccc3F)cc2)C1 (centres undefined) | 731 s |
| CCCN1C(=O)c2cc(S(=O)(=O)Nc3ccc(F)cc3C)ccc2Oc2cccnc21 | 1100 s |
| CCc1ccc(CNC(=O)Cn2ccc3c(=O)n(C)c(=O)n(C)c32)cc1 | 716 s |
| CCCN1C(=O)c2ccccc2C(C(=O)N2CCOCC2)C1c1cc(OC)c(OC)c(OC)c1 (centres undefined) | 684 s |
| Cc1cc(Cl)ccc1S(=O)(=O)N(C)C1CCc2nn(CC3CC3)c(=O)n2CC1 (centres undefined) | 772 s |
| CSc1ccc(NC(=O)CCNc2cnc3cnccn23)cc1 | 619 s |
| O=C(NC1CCN(c2cc(-c3ccc(F)cc3)[nH]n2)C1)c1cc(F)ccc1Cl (centres undefined) | 685 s |
| O=S(=O)(Cc1ccccc1)N1CCC(Oc2nc3ccccc3s2)CC1 | 1060 s |
| Cc1[nH]c(C)c(S(=O)(=O)N2CCC(C(=O)N3CCC(C)CC3)CC2)c1C(=O)N1CCCCC1 | 760 s |
| COc1cccc(CNc2ncccc2-c2nnc(-c3ccccc3)o2)c1 | 1170 s |
| COCCn1nc(C(=O)N(C)CCCc2c(C)nn(C)c2C)c2c1CCNC2 | 572 s |
| Cn1cc(C2=CCN(S(=O)(=O)c3cccc(F)c3)CC2)c2cccnc21 | 969 s |
| Cc1ccc(CN2C(=O)CN(S(C)(=O)=O)CC2(C)C(=O)NC2CCCCCCC2)cc1 (centres undefined) | 930 s |
| O=C(NCC1CC(=O)N(Cc2ccc(F)cc2)C1)Nc1cccs1 (centres undefined) | 668 s |
| c1ccc(N2CCN(c3ncnc4scc(-c5cccs5)c34)CC2)cc1 | 1250 s |
| CCn1c(=O)c(N2CCC(NC(=O)NCCc3ccccc3)CC2)nc2cccnc21 | 824 s |
| CCc1ccc(-c2cc(C(=O)N3CCN(c4ncccn4)CC3)c3ccccc3n2)s1 | 1090 s |
| O=C(NCCOc1ccc2c(c1)OCO2)C1CCCC1 | 741 s |

| SMILES | RP-LC retention time |
| --- | --- |
| Cc1ccnc(N2CCC(C(=O)NCCCN(C)C3CCCCC3)CC2)n1 | 587 s |
| CCOc1ccc(N2CC(C#N)=C3c4cc(OC)c(OC)cc4CCN3C2)cc1 | 848 s |
| COc1ccc(-c2ccnn2-c2ccc(SCc3ccccc3C)nn2)cc1 | 1390 s |
| Cc1cccc(OCCc2noc(C3CCNC3)n2)c1 (centres undefined) | 646 s |
| Cc1ccc(N2CCN(C(=O)C3=CCN(Cc4cccc(C)c4)CC3)CC2)cc1 | 697 s |
| COCCOC1CN(C2CCN(Cc3cccc(C#N)c3)CC2)C12CCCCC2 (centres undefined) | 557 s |
| COc1ccc2[nH]cc(CCNC(=O)C(C)C3CCN(S(=O)(=O)c4c(C)noc4C)CC3)c2c1 (centres undefined) | 831 s |
| COc1ccc(-c2c(C(=O)N(C)Cc3ccco3)nc3ccccn23)cc1 | 698 s |
| CC(C)(C)C1CCc2[nH]nc(C(=O)N3CCc4nn(CC#N)c(=O)n4CC3)c2C1 (centres undefined) | 760 s |
| O=C(O)C1CCCN(CCC=C(c2ccccc2)c2ccccc2)C1 (centres undefined) | 783 s |
| CCCOCCOC(=O)C1=C(C)NC2=C(C(=O)CCC2)C1c1ccc(OC)cc1OC (centres undefined) | 792 s |
| Cc1ccc(OCC(=O)N2CCN(c3nc(CN4CCOCC4)cs3)CC2)cc1 | 640 s |
| O=C(Cc1c[nH]c2ccccc12)N1CCC(c2nc(C3CC3)no2)C1 (centres undefined) | 764 s |
| Cc1cc2c(N3CCN(CCO)CC3)ncnc2s1 | 520 s |
| CC1CCN(CCCNC(=O)C2CCc3sc(C(=O)N4CCOCC4)cc3C2)CC1 (centres undefined) | 596 s |
| O=C(c1ccsc1)N1CCC[C@H]1c1nc(C2CCOCC2)n[nH]1 | 592 s |
| O=C1CCCc2c1cc(C(=O)N1CCOCC1)c(=O)n2-c1ccc(C(F)(F)F)cc1 | 723 s |
| Cc1ccc(NC(=O)CCC2CCN(c3cc(NC4CC4)ncn3)CC2)cc1 | 692 s |
| O=C(NCc1ccccc1F)c1c(O)c2cccnc2n(Cc2ccccc2)c1=O | 1360 s |
| Cc1ccc(Cc2nc(-c3ccnc(N4CCOCC4)c3)no2)cc1 | 908 s |
| CCNC(=O)N1CCCCCC1CN1CCCC1 (centres undefined) | 564 s |
| CC(C)(C)NC(=O)N1CCC(CNC(=O)CSc2ccc(F)cc2)CC1 | 715 s |
| CCOC(=O)Cc1nnc(-c2ccc(Br)cc2)o1 | 903 s |
| c1ccc(N2CCN(c3nnc(-n4cccc4CN4CCN(c5ccccn5)CC4)s3)CC2)cc1 | 675 s |

More lines, now with the values ahead:

| RP-LC retention time | SMILES |
| --- | --- |
| 902 s | COc1cccc(NC(=O)CN2C(=O)C3CCCCN3c3ccc(S(=O)(=O)N(C)C)cc32)c1 (centres undefined) |
| 674 s | Cc1ccc(NC(=O)N2CCN(c3ccc(=O)n(-c4ccccc4)n3)CC2)cc1 |
| 800 s | O=C(Nc1ccc2c(c1)C(=O)N1CCCCC1CCO2)c1ccc2nsnc2c1 (centres undefined) |
| 900 s | Cc1ccc(C)c(N2CCN(C(=O)c3cn(-c4ccc(NC(=O)C5CC5)cn4)cn3)CC2)c1 |
| 624 s | CCc1nc2c(c(=O)n1CC(=O)NCc1cccs1)CN(Cc1ccccc1)CC2 |
| 757 s | CC(C)NC(=O)c1ccc(OCC2CCCN2C(=O)c2ccco2)cc1 (centres undefined) |
| 744 s | CCCN(CCC)S(=O)(=O)c1cccc(-c2cn3ccc(C)cc3n2)c1 |
| 1040 s | CCn1cc(-c2nc(CC(=O)Nc3cc(C)ccc3F)cs2)c2cccnc21 |
| 520 s | Cc1nnc(NC(=O)CNC(=O)c2ccc(=O)[nH]c2)s1 |
| 1030 s | COc1ccc(N2CCN(c3cc(SCC(=O)Nc4ccc(C)c(F)c4)ncn3)CC2)cc1 |
| 954 s | O=C(NCc1cccc(Cl)c1)c1c(O)c2cccnc2[nH]c1=O |
| 988 s | CCN1C(=O)C(C)(C(=O)Nc2ccc(F)c(Cl)c2)Oc2cccnc21 (centres undefined) |
| 924 s | O=c1c2cc(-c3cccs3)nn2ccn1CC(O)c1cccc(Cl)c1 (centres undefined) |
| 933 s | Cc1cc(=O)n2nc(-c3ccc(Cl)cc3)nc2n1CC(=O)N1CCN(c2ccc(F)cc2)CC1 |
| 608 s | CCOC(=O)CNC(=O)NCCc1nc2cccnc2n1-c1ccccc1 |
| 734 s | Cc1ccc(CNC(=O)CCn2nc(C)c3c(C)n(-c4ccccc4)nc3c2=O)o1 |
| 844 s | O=C(Cn1nc2c3sc(N4CCCCC4)nc3ncn2c1=O)Nc1ccc(F)cc1Cl |
| 1060 s | Cc1ccc(NC(=O)COc2cc(C(F)(F)F)c3c(C)nn(C)c3n2)c(C)c1 |
| 734 s | CC(=O)c1cccc(NC(=O)c2nc3nc(C)cc(C(F)F)n3n2)c1 |
| 836 s | CCn1nc(C)n2cc(S(=O)(=O)NCc3ccc(F)cc3)cc2c1=O |

| RP-LC retention time | SMILES |
| --- | --- |
| 964 s | COc1cccc(N2CCN(c3ccnc(SCC(=O)Nc4cc(Cl)ccc4OC)n3)CC2)c1 |
| 807 s | CC(C)NC(=O)Cn1cccc(-c2nc(-c3ccc(Cl)cc3)no2)c1=O |
| 911 s | COc1ccccc1N1CCN(c2ncc(C(=O)O)c(C(C)C)n2)CC1 |
| 635 s | CC(NC(=O)c1ccc2nc(-c3ccc(Cl)cc3)cn2c1)c1ccccn1 (centres undefined) |
| 772 s | CCOC(=O)c1cccc(NC(=O)c2c(OCC)cc(=O)n3c2CCCC3)c1 |
| 1210 s | COc1ccc(-c2nc(-c3cccc(-c4ccnn4C)c3)no2)c(C)c1 |
| 966 s | O=c1ccc(-c2ccc3c(c2)OCO3)nn1CCc1nc(-c2ccccc2Cl)no1 |
| 915 s | CC(C)Cc1cc(-c2nn3c(-c4ccccc4F)nnc3s2)n[nH]1 |
| 827 s | COc1ccc(OC)c(CNC(=O)C2CCCN(c3ccc(=O)n(-c4cccc(F)c4)n3)C2)c1 (centres undefined) |
| 952 s | Cc1ccc(-c2cc3c4nnc(CCC(=O)NCc5ccccc5C(F)(F)F)n4ccn3n2)cc1C |
| 845 s | CCOC(=O)c1nc(Nc2ccc(F)cc2F)c2ccccc2n1 |
| 773 s | Cc1ccc(Cl)cc1NC(=O)N1CC=C(c2cn(C)c3ncccc23)CC1 |
| 612 s | COCCC(=O)Nc1ccc2c(c1)Sc1ncccc1C(=O)N2C |
| 1040 s | CCc1cc(=O)n(CC(=O)NCc2cccs2)c(-c2ccccc2)n1 |
| 657 s | CN1C(=O)c2cccn2CC1C(=O)NCc1ccc2c(c1)OCO2 (centres undefined) |
| 888 s | CN(C)C(=O)C1CCN(c2nc3ccc(-c4ccccc4)nc3s2)CC1 |
| 1260 s | Cc1cccc(-c2noc(Cc3nc(-c4ccccc4)cs3)n2)c1 |
| 980 s | CCn1c(=O)sc2cc(S(=O)(=O)N3CCC(C(=O)Nc4ccc(Cl)cc4C)CC3)ccc21 |
| 958 s | COc1ccc2c(c1)c(CC(=O)OCC(=O)O)c(C)n2C(=O)c1ccc(Cl)cc1 |
| 604 s | COCCN1C(=O)CCc2cc(NC(C)=O)ccc21 |
